The target of experiment [1] is cIAP1-BIR3 (Homo sapiens (Human), UniProt Q13490). Kind of experiment: BIR binding assay (FRET competition), cIAP1 BIR3. The settings on record: for cIAP1 BIR3 vs BIR2 separation window: fold separation (FS) for cIAP1. An outline of the steps:
(§1)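 His-tagged domains (50 nM cIAP1-BIR3, 325 nM cIAP2-BIR2, 325 nM cIAP1-BIR2, 100 nM XIAP-BIR3) compete with compounds for a 200 nM AlexaFluor647-labelled SMAC/DIABLO peptide in HEPES buffer, pH 7.4, for 60 min. Then 2 nM Eu-W1024 is added for 30 min. The 615/665 nm ratio is fit by four-parameter fit to give IC50.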

In experiment [2] the target is cIAP1-BIR2 (Homo sapiens (Human), UniProt Q13490). Kind of experiment: BIR binding assay (FRET competition), cIAP1 BIR2. In outline:
as §1

The target of experiment [3] is cIAP2-BIR2 (Homo sapiens (Human), UniProt Q13489). Kind of experiment: BIR binding assay (FRET competition), cIAP2 BIR2. An outline of the steps:
as §1

For experiment [4], the target named is XIAP-BIR2 (Homo sapiens (Human), UniProt P98170). Kind of experiment: BIR binding assay (FRET competition), XIAP BIR2. The protocol:
The BIR domain binding assays are FRET based competition assays that utilize His-tagged versions of each of the BIR2 and BIR3 domains from cIAP1, cIAP2, and XIAP (each domain assayed separately) each at a custom optimal concentration and a probe, 200 nM SMAC/DIABLO peptide AVPIAQKSE labelled with AlexaFluor647 (part #crb 1110326h, Discovery Peptides). The assay is conducted in 50 mM HEPES, […], 1 mM CHAPS, 5% Glycerol, 1 mM DTT, in dI water with a final pH of 7.4 and final volume of 20 uL. Final protein domain concentrations are: 50 nM cIAP1-BIR3 (Part #APT-11-370 Reaction Biology), 100 nM XIAP-BIR3 (Part #APT-11-351 Reaction Biology), 200 nM XIAP-BIR2 (Part #APT-11-470 Reaction Biology), 325 nM cIAP2-BIR2 (Part #APT-11-489 Reaction Biology), 50 nM cIAP2-BIR3 (Part #APT-11-372 Reaction Biology), 325 nM cIAP1-BIR2 (Part #APT-11-487 Reaction Biology). Compounds were plated using a HP Tecan D300 printer in a final total volume of 202 nl and DMSO concentration normalized across the 15-point, 3-fold dilution series. Peptide and probe were prepared at 2× relative to the concentrations above in binding buffer, 10 uL added to the prepared compound plates, and incubated for 60 minutes. LANCE Eu-W1024 (part #AD0401 Perkin Elmer #, vendor) was prepared at 2× concentration in binding buffer for final concentration of 2 nM, 10 uL added to each well, and plates incubated for 30 minutes. Plates were read on an ENVISION multifunction plate reader with […] laser excitation to obtain the 615 nm/665 nm emission ratio as indicative of probe:protein proximity. Data was analyzed using GraphPad PRISM and curves fit using log(inhibitor) vs. response—Variable slope (four […] method to obtain IC50 and pIC50 values.

Experiment [5] concerns the target XIAP-BIR3 (Homo sapiens (Human), UniProt P98170). The experiment can be described thus: BIR binding assay (FRET competition), XIAP BIR3. The note with it: for XIAP BIR3 vs BIR2 separation window: fold separation (FS) for XIAP. An outline of the steps:
as §1

The target of experiment [6] is cIAP2-BIR3 (Homo sapiens (Human), UniProt Q13489). Kind of experiment: BIR binding assay (FRET competition), cIAP2 BIR3. The settings on record: for cIAP2 BIR3 vs BIR2 separation window: fold separation (FS) for cIAP2.
Experiment [7] deals with Jurkat HIV-luciferase clones. Kind of experiment: Jurkat latency reversal assay. It counts as cell-based. The note with it: Homo sapiens, 48 h; Jurkat latency reversal assay potency; read-out: Jurkat pEC50 (converted). In outline:
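Pooled Jurkat clones C16, 115 and N6, each carrying one or two integrated HIV-luciferase proviruses and kept in 500 nM EFV, were exposed to 3-fold, 14-point compound titrations in duplicate (10 μM top, 0.5% DMSO) for 48 h at 37° C. Luciferase luminescence was fitted by four-parameter logistic regression for EC50 and maximal percent activation versus vehicle.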

Where [8] appears, read: FRET competition binding, read-out: XIAP BIR2 (pIC50) (converted).
The mark [9] stands for this setting: FRET competition, read-out: XIAP BIR2 (pIC50) (converted).

Like-named read-outs stand apart in the source and are kept apart here.

Sequence of cIAP1-BIR2 (Q13490 173-257): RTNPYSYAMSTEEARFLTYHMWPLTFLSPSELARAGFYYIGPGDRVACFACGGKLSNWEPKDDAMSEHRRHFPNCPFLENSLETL
Sequence of XIAP-BIR2 (P98170 124-240): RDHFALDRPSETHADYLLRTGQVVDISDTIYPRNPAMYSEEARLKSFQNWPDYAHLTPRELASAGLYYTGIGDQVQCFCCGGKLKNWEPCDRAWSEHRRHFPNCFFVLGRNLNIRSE
Sequence of cIAP2-BIR2 (Q13489 158-242): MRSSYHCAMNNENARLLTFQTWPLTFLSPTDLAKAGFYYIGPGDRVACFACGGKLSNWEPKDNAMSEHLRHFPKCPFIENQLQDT
Sequence of XIAP-BIR3 (P98170 241-356): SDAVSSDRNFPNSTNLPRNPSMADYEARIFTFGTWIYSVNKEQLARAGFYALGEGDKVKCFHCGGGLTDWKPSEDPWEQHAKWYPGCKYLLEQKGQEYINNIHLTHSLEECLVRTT
Sequence of cIAP2-BIR3 (Q13489 238-349): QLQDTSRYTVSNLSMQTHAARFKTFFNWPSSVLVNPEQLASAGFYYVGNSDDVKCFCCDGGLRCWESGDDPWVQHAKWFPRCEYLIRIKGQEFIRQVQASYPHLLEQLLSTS
Sequence of cIAP1-BIR3 (Q13490 253-363): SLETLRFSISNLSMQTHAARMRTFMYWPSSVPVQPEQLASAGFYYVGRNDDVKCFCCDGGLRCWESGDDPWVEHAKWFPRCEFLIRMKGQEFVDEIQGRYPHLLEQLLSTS

Turning to `C[C@@H]1CN(CC(=O)N2CC(C)(C)c3[nH]c(=O)c(Cc4ccc(F)cc4)cc32)[C@@H](CN2CCC[C@H](NC(=O)Cc3cccc(CC(=O)N[C@H]4CCCN(C[C@H]5CN[C@H](C)CN5CC(=O)N5CC(C)(C)c6[nH]c(=O)c(Cc7ccc(F)cc7)cc65)C4)c3)C2)CN1` [Example 41, 2,2′-(1,3-phenylene)bis(N-((S)-1-(((2R,5R)-1-(2-(6-(4-fluorobenzyl)-3,3-dimethyl-5-oxo-2,3,4,5-tetrahydro-1H-pyrrolo[3,2-b]pyridin-1-yl)-2-oxoethyl)-5-methylpiperazin-2-yl)methyl)piperidin-3-yl)acetamide)], the IC50 in experiment [1] is 31.6 to 501 nM; in experiment [2], 3.16 to 10 µM; in experiment [3], 3.16 to 10 µM; in experiment [4] (setting [8]) it was 10 to 51.3 µM; in experiment [5], 31.6 to 501 nM; in experiment [6] it was 31.6 to 501 nM. Also, in experiment [1], the “cIAP1 BIR3 vs BIR2 separation window” value is reported as “+++ (10,000>FS>1,000)”. The “XIAP BIR3 vs BIR2 separation window” value in experiment [5] is “+++ (10,000>FS>1,000)”. In experiment [6], the “cIAP2 BIR3 vs BIR2 separation window” value was “+++ (10,000>FS>1,000)”. Also, the EC50 in experiment [7] was 316 to 3310 nM.

With `C[C@@H]1CN(CC(=O)N2CC(C)(C)c3[nH]c(=O)c(Cc4ccc(F)cc4)cc32)[C@@H](CN2CCN(Cc3cn(CCC(=O)N4CCN(C[C@H]5CN[C@H](C)CN5CC(=O)N5CC(C)(C)c6[nH]c(=O)c(Cc7ccc(F)cc7)cc65)[C@H](C)C4)nn3)C[C@H]2C)CN1` [Compound 156], the IC50 in experiment [1] was 15.8 to 31.6 nM; in experiment [2], 1 to 3.16 µM; in experiment [3], 1 to 3.16 µM; in experiment [4] (setting [9]), 10 to 51.3 µM; in experiment [5] it was 15.8 to 31.6 nM; in experiment [6] it was 7.94 to 15.8 nM. Moreover, the “cIAP1 BIR3 vs BIR2 separation window” value in experiment [1] is “++ (1,000>FS>100)”. Moreover, in experiment [5], the “XIAP BIR3 vs BIR2 separation window” value is “++++ (FS>10,000)”. Moreover, the “cIAP2 BIR3 vs BIR2 separation window” value in experiment [6] is recorded as “+++ (10,000>FS>1,000)”. Further, the EC50 in experiment [7] is 63.1 to 316 nM.

Take `C[C@@H]1CN(CC(=O)N2CC(C)(C)c3[nH]c(=O)c(Cc4c(F)cc(F)cc4F)cc32)[C@@H](CN2CCO[C@H](C(=O)NCc3ccc(CNC(=O)[C@@H]4CN(C[C@H]5CN[C@H](C)CN5CC(=O)N5CC(C)(C)c6[nH]c(=O)c(Cc7c(F)cc(F)cc7F)cc65)CCO4)cc3)C2)CN1` [Compound 167, (2S,2′S)-N,N′-(1,4-phenylenebis(methylene)) bis(4-(((2R,5R)-1-(2-(3,3-dimethyl-5-oxo-6-(2,4,6-trifluorobenzyl)-2,3,4,5-tetrahydro-1H-pyrrolo[3,2-b]pyridin-1-yl)-2-oxoethyl)-5-methylpiperazin-2-yl)methyl)morpholine-2-carboxamide)]: the IC50 is 7.94 to 15.8 nM in experiment [1]; 0.0224 to 1 µM in experiment [2]; 0.0224 to 1 µM in experiment [3]; 10 to 51.3 µM in experiment [4] (setting [9]); 15.8 to 31.6 nM in experiment [5]; 1.38 to 7.94 nM in experiment [6]. Further, the “cIAP1 BIR3 vs BIR2 separation window” value in experiment [1] is given as “++ (1,000>FS>100)”. Besides, in experiment [5], the “XIAP BIR3 vs BIR2 separation window” value is reported as “++++ (FS>10,000)”. Also, the “cIAP2 BIR3 vs BIR2 separation window” value in experiment [6] is on record as “++ (1,000>FS>100)”. Moreover, in experiment [7], the EC50 was 0.49 to 12.6 nM.

Take `C[C@@H]1CN(CC(=O)N2CC(C)(C)c3ncc(Oc4ccc(F)cc4)cc32)[C@@H](CN2CCO[C@H](COc3cccc(OC[C@@H]4CN(C[C@H]5CN[C@H](C)CN5CC(=O)N5CC(C)(C)c6ncc(Oc7ccc(F)cc7)cc65)CCO4)c3)C2)CN1` [Compound 142, 1-[6-(4-fluorophenoxy)-3,3-dimethyl-2H-pyrrolo[3,2-b]pyridin-1-yl]-2-[(2R,5R)-2-[[(2S)-2-[[3-[[(2S)-4-[[(2R,5R)-1-[2-[6-(4-fluorophenoxy)-3,3-dimethyl-2H-pyrrolo[3,2-b]pyridin-1-yl]-2-oxo-ethyl]-5-methyl-piperazin-2-yl]methyl]morpholin-2-yl]methoxy]phenoxy]methyl]morpholin-4-yl]methyl]-5-methyl-piperazin-1-yl]ethanone]: the IC50 was 15.8 to 31.6 nM in experiment [1]; 10 to 51.3 µM in experiment [2]; 10 to 51.3 µM in experiment [4] (setting [9]); 31.6 to 501 nM in experiment [5]; 15.8 to 31.6 nM in experiment [6]. Moreover, the “cIAP1 BIR3 vs BIR2 separation window” value in experiment [1] is “+++ (10,000>FS>1,000)”. In addition, in experiment [5], the “XIAP BIR3 vs BIR2 separation window” value is “+++ (10,000>FS>1,000)”. For the same molecule, the EC50 in experiment [7] is 12.6 to 63.1 nM.

On to `C[C@@H]1CN(CC(=O)N2CC(C)(C)c3[nH]c(=O)c(Oc4ccc(Cl)cc4)cc32)[C@@H](CN2CCO[C@H](C(=O)NCc3ccc(CNC(=O)[C@@H]4CN(C[C@H]5CN[C@H](C)CN5CC(=O)N5CC(C)(C)c6[nH]c(=O)c(Oc7ccc(Cl)cc7)cc65)CCO4)cc3)C2)CN1` [Compound 182, (2S,2′S)-N,N′-(1,4-phenylenebis(methylene)) bis(4-(((2R,5R)-1-(2-(6-(4-chlorophenoxy)-3,3-dimethyl-5-oxo-2,3,4,5-tetrahydro-1H-pyrrolo[3,2-b]pyridin-1-yl)-2-oxoethyl)-5-methylpiperazin-2-yl)methyl)morpholine-2-carboxamide)], for which the IC50 in experiment [1] was 7.94 to 15.8 nM; in experiment [3] it was 3.16 to 10 µM; in experiment [4] (setting [9]) it was 10 to 51.3 µM; in experiment [5], 31.6 to 501 nM; in experiment [6], 1.38 to 7.94 nM. For the same molecule, the “XIAP BIR3 vs BIR2 separation window” value in experiment [5] is on record as “+++ (10,000>FS>1,000)”. For the same molecule, the “cIAP2 BIR3 vs BIR2 separation window” value in experiment [6] is recorded as “+++ (10,000>FS>1,000)”. The EC50 in experiment [7] is 63.1 to 316 nM.

On to `C[C@@H]1CN(CC(=O)N2CC(C)(C)c3[nH]c(=O)c(Cc4ccc(F)cc4)cc32)[C@@H](CN2CCO[C@H](COc3ccccc3Cc3ccccc3OC[C@@H]3CN(C[C@H]4CN[C@H](C)CN4CC(=O)N4CC(C)(C)c5[nH]c(=O)c(Cc6ccc(F)cc6)cc54)CCO3)C2)CN1` [Example 66, 1,1′-(2,2′-((3R,3′R,6R,6′R)-(((2S,2'S)-(((methylenebis(2,1-phenylene))bis(oxy))bis(methylene))bis(morpholine-2,4-diyl))bis(methylene))bis(3-methylpiperazine-6,1-diyl))bis(acetyl))bis(6-(4-fluorobenzyl)-3,3-dimethyl-1,2,3,4-tetrahydro-5H-pyrrolo[3,2-b]pyridin-5-one)], for which the IC50 in experiment [1] was 15.8 to 31.6 nM; in experiment [4] (setting [8]) it was 10 to 51.3 µM; in experiment [5], 15.8 to 31.6 nM; in experiment [6] it was 7.94 to 15.8 nM. Besides, the “XIAP BIR3 vs BIR2 separation window” value in experiment [5] was “++++ (FS>10,000)”. For the same molecule, the EC50 in experiment [7] is 0.49 to 12.6 nM.

`C[C@@H]1CN(CC(=O)N2CC(C)(C)c3[nH]c(=O)c(Cc4ccc(F)cc4)cc32)[C@@H](CN2CCO[C@H](COc3ccc(Oc4cccc(Oc5ccc(OC[C@@H]6CN(C[C@H]7CN[C@H](C)CN7CC(=O)N7CC(C)(C)c8[nH]c(=O)c(Cc9ccc(F)cc9)cc87)CCO6)cc5)c4)cc3)C2)CN1` [Example 60, 1,1′-(2,2′-((3R,3′R,6R,6′R)-(((2S,2'S)-((((1,3-phenylenebis(oxy))bis(4,1-phenylene))bis(oxy))bis(methylene))bis(morpholine-2,4-diyl))bis(methylene))bis(3-methylpiperazine-6,1-diyl))bis(acetyl))bis(6-(4-fluorobenzyl)-3,3-dimethyl-1,2,3,4-tetrahydro-5H-pyrrolo[3,2-b]pyridin-5-one)]: the IC50 in experiment [1] fell in the range of 31.6 to 501 nM; in experiment [3], 10 to 51.3 µM; in experiment [4], 10 to 51.3 µM; in experiment [5], 31.6 to 501 nM; in experiment [6], 15.8 to 31.6 nM. Moreover, the “XIAP BIR3 vs BIR2 separation window” value in experiment [5] was “++++ (FS>10,000)”. Also, the “cIAP2 BIR3 vs BIR2 separation window” value in experiment [6] is “++++ (FS>10,000)”. Further, in experiment [7], the EC50 was 12.6 to 63.1 nM.

For the origin of these results see US20250326771A1, “PIPERAZINE DERIVATIVES USEFUL IN HIV THERAPY” (VIIV HEALTHCARE COMPANY, priority 2022, published 2025).
